Results as given in a melting point compilation (Tetko et al.; mined from patent text by program, amines drawn as free bases though some values may be those of a salt).

melting point [°C]	Compound
156 to 157	O=C1C=C(O)C(Cc2ccc(Br)cc2)S1 (stereo unspecified)
138 to 145	COc1cc(NC(=O)c2cccc(CCl)c2)cc(OC)c1OC
76.1 to 77.1	CCCCOc1ccc(CC(C)C(=O)Oc2ccc(-c3ccc(C#N)cc3)cc2)cc1 (stereo unspecified)
199 to 205	NC(=O)NC1CCC(OC(=O)c2ccccc2)c2sccc21 (stereo unspecified)
172 to 174	NCCCCCCCCCCCCCCCCCCCC(=O)O
172 to 174	Cc1ccc(N2C(=O)NC(=O)C23CCN(C)CC3)cc1
172	Cn1c(COc2ccc(C#N)cc2)nc2nc(CO)ccc21
244 to 245	N#Cc1cnn2c(-c3ccc(Cl)cc3)ccnc12
140	Cc1ccc2c3ccccc3n(CC(O)CN3CCNCC3c3ccc(Cl)c(Cl)c3)c2c1 (stereo unspecified)
108 to 110	CCCc1nc(CO)c(C(=O)OCC)n1Cc1ccc(-c2ccccc2C(=O)OC(C)(C)C)cc1
69 to 76	COc1cc(N2CCC(N3CCCN(C)CC3)CC2)ccc1Nc1ncc2ccc(-c3ccccc3OC)n2n1
48 to 50	COc1ccc(C2CCN(CCCCc3ccccc3)CC2)cc1
139 to 140	CC(C)Nc1cccnc1N1CCN(C(=O)c2ccc(C(=O)NCCCO)cn2)CC1
152 to 153	O=C(O)CCc1c(-c2ccccc2)noc1-c1ccccc1
151 to 152	COc1cc(OC)cc(-c2oc3ncnc(NC4CCCCCC4)c3c2-c2ccccc2)c1
105 to 107	COc1nc(C)cnc1NS(=O)(=O)c1cccnc1-c1ccc(NC(C)C)cc1
193 to 195	COc1ccc2c(c1)C(=O)C(CN1CCC(O)(c3ccc(F)cc3)CC1)CC2 (stereo unspecified)
122 to 124	CCCCN1C(=O)c2c(ncn2C)N2CCN=C12
186	Oc1cccc2c1C(n1ccnc1)=CCC2

melting point [°C]	Compound
220 to 221	O=c1[nH]c(COc2ccccc2)nc2nccnc12
45 to 47	CCC(CC)(CCl)c1cc(Cl)nnc1Cl
186 to 188	O=C(O)CS(=O)c1cccc(-c2nc(=O)c3ccccc3s2)n1 (stereo unspecified)
> 280	CCOc1cc(C(=O)NC2CC(C)(C)NC(C)(C)C2)ccc1-c1nc2cc(Cl)c(Cl)cc2[nH]1
82 to 83	COC(=O)c1cc(-c2cccc(C(F)(F)F)c2)ns1
159 to 160	O=c1nc(N2CCc3ccccc3C2)sc2ncccc12
286 to 288	O=S(=O)(Nc1ccc(-c2n[nH]c3c2Cc2ccccc2-3)cc1)c1ccccc1
247	NCCCC(=O)NCCS(=O)(=O)O
78 to 86	CN1C(=O)C2C3C=CC(C3)C2(c2ccc3c(c2)CCCC3)C1=O (stereo unspecified)
233 to 234	O=C(/C=C/c1ccc(O)c(C(F)(F)F)c1)/C=C/c1ccc(O)c(C(F)(F)F)c1
132 to 134	COc1cc2c(cc1OC)CC(=O)N(CCCI)C=C2
251 to 254	COc1ccc(-c2nc(N)sc2-c2ccnc(N)c2)cc1
57 to 58	CCc1ccc(-c2nc(COc3ccc(CCCn4ccnc4)cc3)co2)s1
124 to 128	CN(C)C1CC2c3ccccc3Cc3ccccc3N2C1 (stereo unspecified)
162 to 163	COc1ccc(Nc2cc(N3CCCC3)nc(N3CCCC3)n2)cc1
104 to 106	COc1cccc(C(O)c2nc3c(cc2C)CCCCC3)c1 (stereo unspecified)
235 to 237	CC12CCC3c4ccc(C(=O)O)cc4CCC3C1CCC2C(=O)c1ccc2c(c1)OCO2 (stereo unspecified)
280 to 285	CCCCn1cc(C=C2SC(=S)N(CC(=O)O)C2=O)c2ccccc21
241 to 242	Cc1cc(C=O)cc(Oc2[nH]c(=O)[nH]c(=O)c2C(C)C)c1

Compound	melting point [°C]
OCc1cnc2n1-c1ccc(Cl)cc1C(c1ccccc1)=NC2	210 to 213
CN1C/C(=C/C(=O)Nc2ccc(Cl)nn2)C[C@@H]2c3cccc4[nH]cc(c34)C[C@H]21	242 to 243
CCC(=O)N(CC)c1cccc(-c2ccnc3c(C(=O)c4ccco4)cnn23)c1	165 to 167
